In paper PMC5382325, “Rapid Screening of Potential Phosphodiesterase Inhibitors from the Roots of Ilex pubescens Hook. et Arn. Using a Combination of Ultrafiltration and LC–MS” (Evidence-based Complementary and Alternative Medicine : eCAM, 2017):
“And” between values parts separate entries of the source, which are not always exact repeats. Equal values may be shown once. Read-outs that look alike come from different tables or passages of the source.

Experiments:
[1] = target: T1, Phosphodiesterase I (PDEI) from Crotalus adamanteus venom (Crotalus adamanteus, UniProt J3SEZ3); assay type: biochemical; details: read-out: Inhibitory activity (IC50) PDEI
T1 sequence (J3SEZ3 24-851 limits assumed): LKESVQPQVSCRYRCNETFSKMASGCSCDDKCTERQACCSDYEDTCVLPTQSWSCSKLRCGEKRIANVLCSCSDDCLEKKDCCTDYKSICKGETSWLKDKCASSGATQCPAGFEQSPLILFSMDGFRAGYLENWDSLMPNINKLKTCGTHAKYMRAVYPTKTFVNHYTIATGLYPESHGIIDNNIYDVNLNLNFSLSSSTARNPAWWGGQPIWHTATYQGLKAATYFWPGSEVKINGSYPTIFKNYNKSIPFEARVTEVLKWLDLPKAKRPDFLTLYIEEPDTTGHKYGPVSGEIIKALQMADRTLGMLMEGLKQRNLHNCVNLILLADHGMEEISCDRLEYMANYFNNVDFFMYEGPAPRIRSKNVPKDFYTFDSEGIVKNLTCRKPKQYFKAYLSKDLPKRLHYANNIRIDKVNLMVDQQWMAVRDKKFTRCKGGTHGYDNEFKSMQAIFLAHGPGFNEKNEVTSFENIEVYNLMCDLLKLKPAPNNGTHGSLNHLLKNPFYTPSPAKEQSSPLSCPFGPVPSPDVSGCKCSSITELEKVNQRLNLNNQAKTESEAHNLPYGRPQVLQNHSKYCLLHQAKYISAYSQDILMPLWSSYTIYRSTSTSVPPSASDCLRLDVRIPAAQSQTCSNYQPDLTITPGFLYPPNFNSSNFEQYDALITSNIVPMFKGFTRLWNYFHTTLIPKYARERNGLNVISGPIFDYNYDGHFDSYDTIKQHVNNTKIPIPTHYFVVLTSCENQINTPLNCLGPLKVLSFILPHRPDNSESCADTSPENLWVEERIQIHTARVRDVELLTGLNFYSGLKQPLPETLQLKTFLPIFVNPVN

Recombinant human PDE5A = Recombinant human PDE5A (Homo sapiens, UniProt O76074); assay: PDE inhibition assay against PDE5A (Cyclic Nucleotide Phosphodiesterase Assay Kit, spectrophotometric); assay type: biochemical; details: in vitro; for IC50: read-out: Inhibitory activity (IC50) PDE5A
[2] = target: T1, Phosphodiesterase I (PDEI) from Crotalus adamanteus venom; assay type: binding

| SMILES | IC50 [1] [µM] | IC50 (Recombinant human PDE5A) [µM] | Binding to PDEI (in words) [2] | Enhancement factor with PDEI [2] | Activity against PDE5A (in words) (Recombinant human PDE5A) | Enhancement factor with PDEI ([2]; n = 3) |
| --- | --- | --- | --- | --- | --- | --- |
| C[C@@H]1O[C@@H](O[C@H]2[C@H](O[C@H]3[C@H](O[C@H]4CC[C@]5(C)[C@H]6CC=C7[C@H]8[C@](C(=O)O)(CC[C@H](C)[C@@]8(C)O)CC[C@@]7(C)[C@]6(C)CC[C@H]5C4(C)C)OC[C@@H](O)[C@@H]3O)O[C@H](CO)[C@@H](O)[C@@H]2O)[C@H](O)[C@H](O)[C@H]1O [Ilexsaponin B2 (8), Ilexsaponin B2] | 478 | 48.8 | strongest PDEI ligand | 28.73 ± 0.55% and 41.85 ± 0.86% | – | – |
| O=C(C=Cc1ccc(O)c(O)c1)OC1CC(O)(C(=O)O)CC(O)C1OC(=O)C=Cc1ccc(O)c(O)c1 (centres unmarked) [Isochlorogenic acid C (5), Isochlorogenic acid C] | – | – | quite strong bindings to PDEI | – | not active | 26.73 ± 0.41% and 40.03 ± 0.14% |
| C[C@@H]1CC[C@]2(C(=O)O)CC[C@]3(C)C(=CCC4[C@@]5(C)CC[C@H](O)[C@](C)(C(=O)O)C5CC[C@]43C)C2[C@]1(C)O (some centres unmarked) [Ilexgenin A (11), Ilexgenin A] | – | 177 | – | – | – | 23.08 ± 0.44% and 30.82 ± 0.31% |
| C[C@H]1CC[C@]2(C(=O)O)CC[C@]3(C)C(=CC[C@@H]4[C@@]5(C)CC[C@H](O[C@@H]6OC[C@@H](O)[C@H](O)[C@H]6O[C@@H]6O[C@H](CO)[C@@H](O)[C@H](O)[C@H]6O)C(C)(C)[C@@H]5CC[C@]43C)[C@@H]2[C@]1(C)O [Ilexsaponin B1 (10), Ilexsaponin B1] | 854 | 1800 | – | 9.20 ± 0.62% and 15.54 ± 0.21% | – | – |
| C[C@@H]1CC[C@]2(C(=O)OC3OC(CO)C(O)C(O)C3O)CC[C@]3(C)C(=CCC4[C@@]5(C)CC[C@H](O)[C@](C)(C(=O)O)C5CC[C@]43C)C2[C@]1(C)O (some centres unmarked) [Ilexsaponin A1(9), Ilexsaponin A1] | – | 22.4 | low binding efficiency | – | – | 11.68 ± 0.31% and 18.59 ± 0.65% |
| O=C(C=Cc1ccc(O)c(O)c1)OC1CC(O)(C(=O)O)CC(O)C1OC(=O)C=Cc1ccc(O)c(O)c1 (centres unmarked) [Isochlorogenic acid B (3), Isochlorogenic acid B] | – | 193 | – | – | – | 19.15 ± 0.77% and 25.90 ± 1.30% |
